# Data as given in ChEMBL document CHEMBL3046931, “Synthesis, antioxidant, and antitumor evaluation of certain new N-substituted-2-amino-1,3,4-thiadiazoles” (Med Chem Res, 2013).
# Legend:
# [1] = tested on: Ehrlich; assay: In vitro antitumor activity against Mus musculus (mouse) Ehrlich ascites cell assessed as dead tumor cells by trypan blue exclusion test; format: functional
# [2] = Antioxidant activity assessed as inhibition of ABTS free radical formation at 1 mg/ml by spectroscopic analysis (reference value: 0%); format: functional
# [3] = Pro-oxidant activity assessed as bleomycin-Fe3+ complex-induced DNA damage at 1 mg/ml after 1 hr; format: ADME
# [4] = Antioxidant activity assessed as inhibition of ABTS free radical formation at 2 mM by spectroscopic analysis (reference value: 0%); format: functional
SMILES,ED25 [1] [microg/cm3],ED50 [1] [microg/cm3],ED100 [1] [microg/cm3],inhibition [2] [%],OD [3],inhibition [4] [%]
Cc1cc(C)c2c(n1)nn1c(N)c(C(=O)Nc3nncs3)nnc21,25,48.2,80.7,,,
Nc1nnc(SCC(=O)Nc2nncs2)s1,14.4,27,42.5,20.7,0.101,
O=Cc1ccc(Nc2nncs2)cc1,8.7,17.9,38.3,26.5,0.1,
Clc1ccc(-c2nnnn2-c2nncs2)cc1,12,23,41,,,
CC1=NN(c2ccccc2)C(=O)/C1=C/c1ccc(Nc2nncs2)cc1,8.8,17,31,41.6,0.105,
Clc1ccc(CNc2nncs2)cc1,,,,0.354,0.108,
N#CCC(=O)Nc1nncs1,,,,70.9,0.08,
Cc1cc(C)c2c(NN/C=C(\C#N)C(=O)Nc3nncs3)n[nH]c2n1,5,10.2,19,51.8,0.109,
Nc1n[nH]cc1C(=O)Nc1nncs1,,,,18.9,0.102,
N#CSCC(=O)Nc1nncs1,,,,25.7,0.099,
O=C(CNc1nncs1)Nc1nncs1,9.4,18.9,39.1,,,
CN(C)/C=C(\C#N)C(=O)Nc1nncs1,7.8,14.1,26,23.7,0.127,
O=C(Nc1nncs1)c1ccc(Cl)cc1,11,24,52,26.5,0.1,
O=c1[nH]cc(F)c(=O)[nH]1 [FLUOROURACIL],40,63,97,,,
CC1=NN(c2ccccc2)C(=O)/C1=N\Nc1nncs1,10,21,42.1,,,
N#C/C(=C\c1ccc(N2CCCCC2)cc1)C(=O)Nc1nncs1,,,,28.7,0.114,
O=C(CN1CCN(c2ccccc2)CC1)Nc1nncs1,13,24,46.1,25.7,0.096,
O=C(CCl)Nc1nncs1,7.8,16,28,27.1,0.102,
O=C1O[C@H]([C@@H](O)CO)C(O)=C1O [ASCORBIC ACID],,,,,0.098,88.5
c1nnc(/N=N/Nc2nncs2)s1,19.3,33,61.5,24.5,0.103,
Clc1ccc(C/N=c2/scnn2Cc2ccc(Cl)cc2)cc1,7.4,16,29,38,0.121,
O=C(CN1CCN(CC(=O)Nc2nncs2)CC1)Nc1nncs1,8.7,18,37,,,
Nc1nncs1,37,56,92.9,28.5,0.09,
Cl/C(=N\c1nncs1)c1ccc(Cl)cc1,6.9,13,6.9,,,
